Data on five molecules can be found in publication PMC9145945, “Machine-Learning Guided Discovery of Bioactive Inhibitors of PD1-PDL1 Interaction” (Pharmaceuticals, 2022).

The target of assay [1] is T1, human PD1-PDL1 interaction (Homo sapiens, UniProt Q9NZQ7).
T1 construct: purchased Perkin Elmer
Put plainly: HTRF human PD1-PDL1 binding assay. Conditions: for IC50: dose–response 0–100 µM. An excerpt:
The homogeneous time-resolved fluorescence (HTRF) binding assay was used to test these top 20 molecules for their potential blockade of human PD1-PDL1 interaction. We have previously established the utility of the HTRF assay over similar homogenous assay like AlphaLISA, with the latter proving to be more promiscuous in identifying potential false positives against PD1-PDL1 target.
The potential activity of our virtual hits in inhibiting PD1-PDL1 interaction was investigated using the homogeneous time-resolved fluorescence (HTRF) binding assay from Perkin Elmer. The assay was carried out according to the manufacturer’s instructions using the HTRF protocol in BioTek Synergy Neo^TM microplate reader. […] The assay mixture with only PDL1 protein, but not PD1 protein served as a negative control denoting 0% PD1-PDL1 interaction. […] The dose–response data were analyzed using GraphPad Prism to determine IC50 values using nonlinear regression variable slope models.

The next assay addresses protein kinase D (PKD). On the set-up: method as in PMID 20497126. Particulars: VEGF-treated endothelial cells; read-out: IC50 against all three PKD isoforms; cited from earlier work.
For assay [2], the system named is ceramide synthase 1 (CerS1). Conditions: mice fed with high-fat diet; cited from earlier work.
The target in assay [3] is T1, human PD1-PDL1 interaction. Particulars: Table S1; ref BMS Patent 1: WO2015034820A1; cited from earlier work.
Another assay has as its system PD1-PDL1 interaction. The arrangement: method as in PMID 34117723. Conditions: read-out: IC50, PD1-PDL1 inhibitor; cited from earlier work.
Setting [4] is: 25 µM single-dose test concentration.

Each structure is given as a SMILES string. Values joined by “and” are separate entries in the source; they are usually repeats but may differ in a detail not shown here. Identical values can stand only once.

T1 sequence (Q9NZQ7 19-238 limits assumed): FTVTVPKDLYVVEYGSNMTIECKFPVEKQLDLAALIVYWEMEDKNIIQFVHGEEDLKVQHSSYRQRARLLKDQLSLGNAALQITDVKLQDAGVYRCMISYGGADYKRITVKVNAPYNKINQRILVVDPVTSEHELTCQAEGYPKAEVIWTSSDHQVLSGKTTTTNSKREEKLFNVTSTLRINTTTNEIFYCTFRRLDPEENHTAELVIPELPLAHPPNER

By IC50 is commonly meant the concentration needed to halve the response being measured. In the case of `CCOc1ccc2cc(-c3cc(-c4cccc(C(=O)NCCN(C)C)c4)cnc3N)ccc2c1` [Compound 1], the “% PD1-PDL1 Inhibition” value in assay [1] (setting [4]) is 50.9 ± 1.3%. Also, the IC50 in assay [1] was ~22 µM and ~22.4 µM; in assay [1] (listed as CRT5), 22.4 µM; on protein kinase D (PKD), 0.001 to 0.002 µM.

Turning to `C[C@@](N)(CO)CCc1ccc(OCc2ccc(Cl)c(Cl)c2)cc1` [Compound 2], the “% PD1-PDL1 Inhibition” value in assay [1] (setting [4]) was 41.4 ± 0.9%. Moreover, the values for the half-maximal inhibitory concentration (IC50) in assay [1] and in assay [1] (listed as P053) were roughly 33.6 µM and 33.6 µM, respectively. Besides, in assay [2], the “fatty acid oxidation in skeletal muscles” value was “increased fatty acid oxidation”.

Turning to `COc1cc(OCc2cccc(-c3ccccc3)c2C)cc(OC)c1CN1CCCC[C@H]1C(=O)O` [Compound 1--1], in assay [3], the “Activity (classification used for ML modeling)” value is on record as “ACTIVE”.

Turning to `Cc1cc(/C=C/c2ccc3cc(N(C)C)ccc3[n+]2C)c(C)n1-c1ccccc1` [Pyrvinium], the half-inhibitory concentration (IC50) in the assay on PD1-PDL1 interaction is roughly 29.7 µM.

Broadly, the inhibition is the drop in the measured response relative to a control, in per cent. For `Cc1c(COc2ccc(CN3CCCCC3C(=O)O)cc2Br)cccc1-c1ccccc1` (centres unmarked) [Compound 18], the inhibition at 25 µM in assay [1] (setting [4]) was -4.4 ± 1.2%.
